Experimental data: US12215085B2 (priority 2019, dated 2025)

What was measured:
[1] = system: rats with beta-amyloid induced senile dementia; test: Water maze test, beta-amyloid induced senile dementia rats; format: in vivo, rat; settings: succinate; for orientation angle for reaching the platform / speed for reaching the platform / swimming path length for reaching the platform / time for reaching the platform: x ± s
[2] = system: rats with common carotid artery occlusion-induced vascular dementia; test: Step-down test, common carotid artery occlusion-induced vascular dementia rats; format: in vivo, rat; settings: step-down method, x ± s, succinate
Excerpt: A rat blood vessel dementia model was made according to the references [ZHAO Xian-lin, FANG Xiu-bin, LI Dong-pei. Establishment of Vascular Dementia Model in Rats, J Chin Med Univ, 2002, 31 (3): 166-168; WANG Yong-yan, Zhang Bo-li, Editor-in-chief. Modern Chinese Medicine Clinic and Research on Vascular Dementia, People's Medical Publishing House, October 2003, First Version 214]: Chloral hydrate 0.4 g/kg was intraperitoneally injected for anesthetizing rats, and bilateral common carotid arteries were isolated and ligated. The animals were fed for 16 weeks, divided into groups on the last 7 days, and administered. The normal control group and the model group were administrated through the intragastric route with distilled water by 0.5 ml/100 g, the positive control group was administrated through the intragastric route with donepezil hydrochloride by 1.75 mg/kg (equivalent to 3.85 times the clinical daily dosage of 5 mg/70 kg), the low, medium and high-dose groups of Crystal Form A of octahydroaminoacridine succinate were administrated through the intragastric route with Crystal Form A of octahydroaminoacridine succinate by 0.7, 1.4 and 2.8 mg/kg (equivalent to 0.96, 1.92 and 3.85 times the clinical daily dosage of 8 mg/70 kg). The water maze test and the step-down test were carried out after continuous administration for 7 days, and the administration was continued during the test period. The water maze test was continuously performed for 7 days, in the first 6 days, in four different water entry points of quadrants 1, 2, 3 and 4, the time, the swimming path length, the orientation angle and the average speed of the rat reaching the platform were measured, meanwhile, the strategy for reaching the platform adopted by rats was observed, on the 7th day, the platform was removed, the number of rats crossing the platform in 2 minutes, the residence time in the platform area, the residence time in the platform quadrants, the percentage of the swimming path length in the platform area quadrants to the total swimming path length, the average speed and the orientation angle were measured. After the water maze test was finished, the step-down test was performed, and the number of electric shocks (or called as the error number) received by each rat within 5 minutes was recorded as the learning performance. The test was performed again after 24 hours, namely, the memory retention test, and the latent period for stepping-down the platform for the first time and the error number in five minutes were recorded. After the step-down test was finished, the brain was taken quickly for pathological examination, and the pathological changes of the hippocampus and the cortex were observed.

[3] = Day 1, 0.7 mg/kg intragastric, 0.7 mg/kg
[4] = Day 1, 1.4 mg/kg intragastric, 1.4 mg/kg
[5] = Day 1, 2.8 mg/kg intragastric, 2.8 mg/kg
[6] = Day 2, 0.7 mg/kg intragastric, 0.7 mg/kg
[7] = Day 2, 1.4 mg/kg intragastric, 1.4 mg/kg
[8] = Day 2, 2.8 mg/kg intragastric, 2.8 mg/kg
[9] = Day 3, 0.7 mg/kg intragastric, 0.7 mg/kg
[10] = Day 3, 1.4 mg/kg intragastric, 1.4 mg/kg
[11] = Day 3, 2.8 mg/kg intragastric, 2.8 mg/kg
[12] = Day 4, 0.7 mg/kg intragastric, 0.7 mg/kg
[13] = Day 4, 1.4 mg/kg intragastric, 1.4 mg/kg
[14] = Day 4, 2.8 mg/kg intragastric, 2.8 mg/kg
[15] = Day 5, 0.7 mg/kg intragastric, 0.7 mg/kg
[16] = Day 5, 1.4 mg/kg intragastric, 1.4 mg/kg
[17] = Day 5, 2.8 mg/kg intragastric, 2.8 mg/kg
[18] = Day 6, 0.7 mg/kg intragastric, 0.7 mg/kg
[19] = Day 6, 1.4 mg/kg intragastric, 1.4 mg/kg
[20] = Day 6, 2.8 mg/kg intragastric, 2.8 mg/kg
[21] = 0.7 mg/kg intragastric, 0.7 mg/kg
[22] = 1.4 mg/kg intragastric, 1.4 mg/kg
[23] = 2.8 mg/kg intragastric, 2.8 mg/kg

Nc1c2c(nc3c1CCCC3)CCCC2.O=C(O)CCC(=O)O [Crystal Form K, 9-amino-1,2,3,4,5,6,7,8-octahydroacridine succinate]
adopted strategy for reaching the platform (the peripheral type and the random type %) [1, 3]: 95.24% | orientation angle for reaching the platform [1, 3]: 72.32 ± 21.32 ° | speed for reaching the platform [1, 3]: 18.56 ± 4.91 cm/s | swimming path length for reaching the platform [1, 3]: 1196.20 ± 260.35 cm | time for reaching the platform [1, 3]: 70.00 ± 14.73 s | adopted strategy for reaching the platform (the peripheral type and the random type %) [1, 4]: 94.82% | orientation angle for reaching the platform [1, 4]: 71.28 ± 13.47 ° | speed for reaching the platform [1, 4]: 18.24 ± 6.88 cm/s | swimming path length for reaching the platform [1, 4]: 1151.50 ± 313.31 cm | time for reaching the platform [1, 4]: 70.50 ± 14.60 s | adopted strategy for reaching the platform (the peripheral type and the random type %) [1, 5]: 93.17% | orientation angle for reaching the platform [1, 5]: 68.37 ± 20.14 ° | speed for reaching the platform [1, 5]: 19.42 ± 5.93 cm/s | swimming path length for reaching the platform [1, 5]: 1188.50 ± 273.99 cm | time for reaching the platform [1, 5]: 66.90 ± 11.45 s | adopted strategy for reaching the platform (the peripheral type and the random type %) [1, 6]: 79.34% | orientation angle for reaching the platform [1, 6]: 62.15 ± 19.37 ° | speed for reaching the platform [1, 6]: 19.44 ± 9.85 cm/s | swimming path length for reaching the platform [1, 6]: 796.10 ± 179.65 cm | time for reaching the platform [1, 6]: 48.50 ± 15.28 s | adopted strategy for reaching the platform (the peripheral type and the random type %) [1, 7]: 78.13% | orientation angle for reaching the platform [1, 7]: 63.27 ± 10.38 ° | speed for reaching the platform [1, 7]: 20.42 ± 7.24 cm/s | swimming path length for reaching the platform [1, 7]: 772.80 ± 229.71 cm | time for reaching the platform [1, 7]: 51.60 ± 17.26 s | adopted strategy for reaching the platform (the peripheral type and the random type %) [1, 8]: 80.67% | orientation angle for reaching the platform [1, 8]: 66.21 ± 18.35 ° | speed for reaching the platform [1, 8]: 20.89 ± 6.68 cm/s | swimming path length for reaching the platform [1, 8]: 770.70 ± 248.67 cm | time for reaching the platform [1, 8]: 50.40 ± 17.10 s | adopted strategy for reaching the platform (the peripheral type and the random type %) [1, 9]: 80.31% | orientation angle for reaching the platform [1, 9]: 58.23 ± 27.90 ° | speed for reaching the platform [1, 9]: 19.76 ± 10.49 cm/s | swimming path length for reaching the platform [1, 9]: 760.80 ± 277.08 cm | time for reaching the platform [1, 9]: 41.80 ± 11.68 s | adopted strategy for reaching the platform (the peripheral type and the random type %) [1, 10]: 77.37% | orientation angle for reaching the platform [1, 10]: 54.77 ± 18.42 ° | speed for reaching the platform [1, 10]: 20.07 ± 7.36 cm/s | swimming path length for reaching the platform [1, 10]: 737.60 ± 223.46 cm | time for reaching the platform [1, 10]: 53.40 ± 23.24 s | adopted strategy for reaching the platform (the peripheral type and the random type %) [1, 11]: 75.48% | orientation angle for reaching the platform [1, 11]: 52.93 ± 17.44 ° | speed for reaching the platform [1, 11]: 20.00 ± 8.73 cm/s | swimming path length for reaching the platform [1, 11]: 584.50 ± 181.92 cm | time for reaching the platform [1, 11]: 40.50 ± 20.47 s | adopted strategy for reaching the platform (the peripheral type and the random type %) [1, 12]: 70.66% | orientation angle for reaching the platform [1, 12]: 57.32 ± 31.22 ° | speed for reaching the platform [1, 12]: 22.17 ± 13.09 cm/s | swimming path length for reaching the platform [1, 12]: 685.10 ± 319.17 cm | time for reaching the platform [1, 12]: 38.10 ± 22.41 s | adopted strategy for reaching the platform (the peripheral type and the random type %) [1, 13]: 71.34% | orientation angle for reaching the platform [1, 13]: 51.48 ± 11.38 ° | speed for reaching the platform [1, 13]: 20.53 ± 11.21 cm/s | swimming path length for reaching the platform [1, 13]: 653.50 ± 321.17 cm | time for reaching the platform [1, 13]: 36.00 ± 20.42 s | adopted strategy for reaching the platform (the peripheral type and the random type %) [1, 14]: 68.99% | orientation angle for reaching the platform [1, 14]: 50.22 ± 18.92 ° | speed for reaching the platform [1, 14]: 21.48 ± 9.09 cm/s | swimming path length for reaching the platform [1, 14]: 544.70 ± 179.35 cm | time for reaching the platform [1, 14]: 37.00 ± 17.54 s | adopted strategy for reaching the platform (the peripheral type and the random type %) [1, 15]: 71.53% | orientation angle for reaching the platform [1, 15]: 54.22 ± 28.34 ° | speed for reaching the platform [1, 15]: 21.30 ± 9.86 cm/s | swimming path length for reaching the platform [1, 15]: 563.90 ± 154.71 cm | time for reaching the platform [1, 15]: 36.20 ± 27.16 s | adopted strategy for reaching the platform (the peripheral type and the random type %) [1, 16]: 69.33% | orientation angle for reaching the platform [1, 16]: 53.62 ± 17.88 ° | speed for reaching the platform [1, 16]: 22.73 ± 17.69 cm/s | swimming path length for reaching the platform [1, 16]: 562.80 ± 280.10 cm | time for reaching the platform [1, 16]: 33.50 ± 21.95 s | adopted strategy for reaching the platform (the peripheral type and the random type %) [1, 17]: 67.59% | orientation angle for reaching the platform [1, 17]: 51.22 ± 20.11 ° | speed for reaching the platform [1, 17]: 21.90 ± 10.66 cm/s | swimming path length for reaching the platform [1, 17]: 481.50 ± 203.96 cm | time for reaching the platform [1, 17]: 30.10 ± 15.85 s | adopted strategy for reaching the platform (the peripheral type and the random type %) [1, 18]: 68.55% | orientation angle for reaching the platform [1, 18]: 52.11 ± 22.00 ° | speed for reaching the platform [1, 18]: 21.55 ± 6.47 cm/s | swimming path length for reaching the platform [1, 18]: 513.30 ± 194.29 cm | time for reaching the platform [1, 18]: 35.90 ± 24.22 s | adopted strategy for reaching the platform (the peripheral type and the random type %) [1, 19]: 65.72% | orientation angle for reaching the platform [1, 19]: 50.65 ± 18.77 ° | speed for reaching the platform [1, 19]: 20.62 ± 7.36 cm/s | swimming path length for reaching the platform [1, 19]: 523.30 ± 182.50 cm | time for reaching the platform [1, 19]: 38.90 ± 22.26 s | adopted strategy for reaching the platform (the peripheral type and the random type %) [1, 20]: 60.14% | orientation angle for reaching the platform [1, 20]: 48.78 ± 16.83 ° | speed for reaching the platform [1, 20]: 18.52 ± 7.78 cm/s | swimming path length for reaching the platform [1, 20]: 540.50 ± 166.77 cm | time for reaching the platform [1, 20]: 36.10 ± 22.34 s | Day 1, Error number [2, 21]: 9.21 ± 4.52 | Day 2, Error latency [2, 21]: 146.89 ± 60.45 s | Day 2, Error number [2, 21]: 2.49 ± 2.35 | Day 1, Error number [2, 22]: 8.34 ± 3.78 | Day 2, Error latency [2, 22]: 178.46 ± 52.77 s | Day 2, Error number [2, 22]: 3.34 ± 1.49 | Day 1, Error number [2, 23]: 8.46 ± 4.68 | Day 2, Error latency [2, 23]: 192.55 ± 87.48 s | Day 2, Error number [2, 23]: 3.41 ± 1.88
